{"source": "patent US11421044B2", "about": "“Nitric oxide-releasing antibacterial polymers and scaffolds fabricated therefrom and methods pertaining thereto” (THE UNIVERSITY OF NORTH CAROLINA AT CHAPEL HILL, priority 2018, dated 2022)", "assay_in_all_cases": "Planktonic bactericidal assay, 4 h", "details_in_all_cases": "4 h exposure", "key": {"[1]": {"test_system": "MDR-P. aeruginosa", "type": "cell-based, multidrug-resistant P. aeruginosa (ATCC #BAA-2110)", "description": "(§1) Planktonic bactericidal assay. Bacterial cultures of P. aeruginosa, E. coli, E. faecalis, S. aureus, multidrug-resistant (MDR) P. aeruginosa, and methicillin-resistant S. aureus were grown from frozen (−80° C.) stocks overnight in TSB (3 mL) at 37° C. An aliquot (1 mL) of the overnight solution was recultured in fresh TSB (50 mL) to a concentration of 10^8 CFU mL^−1 and subsequently diluted to 10^6 CFU mL^−1 in PBS (10 mM, pH 7.4). Weighed samples of control (non-NO-releasing) HA, NO-releasing HA, or neomycin sulfate were dissolved in PBS and titrated with 1 M HCl to adjust the pH to 7.4.\n(§2) Samples were added to a 96-well polystyrene plate and serially diluted in PBS so that each well contained 100 μL of control HA, NO-releasing HA, or neomycin. Bacterial solution containing 10^6 CFU mL^−1 (100 μL; 1 vol % TSB supplemented PBS) was added to each well, giving final HA concentrations in the range of 0.25 to 32 mg mL^−1 or neomycin concentrations from 0.5 to 1024 μg mL^−1. The 96-well plate was then incubated at 37° C. for 4 h with gentle shaking. […] Viability of bacteria following treatment with HA or neomycin was determined using a Flash & Go colony counter (IUL; Farmingdale, N.Y.). […] The NO dose required for bactericidal action was calculated by multiplying the MBC4 h of the NO-releasing HA samples (mg mL^−1) with the total NO released in PBS (pH 7.4; μmol NO mg^−1 HA) at 4 h. […]"}, "[2]": {"test_system": "P. aeruginosa", "type": "cell-based, Pseudomonas aeruginosa (ATCC #47085)", "description": "as §1, §2"}, "[3]": {"test_system": "E. faecalis", "type": "cell-based, Enterococcus faecalis (ATCC #29212)", "description": "as §1, §2"}, "[4]": {"test_system": "MRSA", "type": "cell-based, methicillin-resistant S. aureus (ATCC #33591)", "description": "as §1, §2"}, "[5]": {"test_system": "S. aureus", "type": "cell-based, Staphylococcus aureus (ATCC #29213)", "description": "as §1, §2"}, "[6]": {"test_system": "E. coli", "type": "cell-based, Escherichia coli (ATCC #43888)", "description": "as §1, §2"}}, "data": [{"substance": "neomycin sulfate", "values": [{"measurement": "Dose of neomycin for 3-log reduction", "setting": "[1]", "value": 128, "unit": "μg mL^−1"}, {"measurement": "Dose of neomycin for 3-log reduction", "setting": "[2]", "value": 32, "unit": "μg mL^−1"}, {"measurement": "Dose of neomycin for 3-log reduction", "setting": "[3]", "value": 64, "unit": "μg mL^−1"}, {"measurement": "Dose of neomycin for 3-log reduction", "setting": "[4]", "value": ">1024", "unit": "μg mL^−1"}, {"measurement": "Dose of neomycin for 3-log reduction", "setting": "[5]", "value": 2, "unit": "μg mL^−1"}, {"measurement": "Dose of neomycin for 3-log reduction", "setting": "[6]", "value": 1, "unit": "μg mL^−1"}]}]}
